From patent publication US8168645B2, “Arylsulfonamide compounds” (Genentech, Inc., priority 2006, dated 2012)
pIC50: −log10 of the molar value.

How the values were obtained:
[1] = test system: mouse embryo fibroblasts (MEFs): wild type, Bax/Bak double knockout, Noxa-expressing, Bad-expressing; experiment: Cell viability assay on mouse embryo fibroblasts (propidium iodide uptake); format: cell-based; settings: propidium iodide uptake after 24 hours, FIG. 1A/1B
Description: FIG. 1 graphically depicts the effect of Compound 1 (FIG. 1A) and Etoposide (FIG. 1B), at increasing concentrations, on the % viability of certain mouse embryo fibroblast (MEF) cells as assessed by propidium iodide uptake after 24 hours. Noxa and Bad were introduced by retrovirally infecting the cells with pMIG retroviruses as described by Chen et al., 2005.
The efficacy of the compounds of the present invention can also be determined in cell based killing assays using a variety of cell lines and mouse tumor models. For example, their activity on cell viability can be assessed on a panel of cultured tumorigenic and non-tumorigenic cell lines, as well as primary mouse or human cell populations, e.g. lymphocytes. For these assays, 5,000-20,000 cells are cultured at 37° C. and 10% CO2 in appropriate growth media, eg: 100 μL Dulbecco's Modified Eagle's medium supplemented with 10% foetal calf serum, asparaginase and 2-mercaptoethanol in the case of pre-B Eμ-Myc mouse tumors in 96 well plates. […] Cell viability is determined by the ability of the cells to exclude propidium iodide (10 μg/mL by immunofluorescence analysis of emission wavelengths of 660-675 nm on a flow cytometer (BD FACScan). Alternatively, a high throughput calorimetric assay such as the Cell Titre 96 could be used. Aqueous Non-Radioactive Cell Proliferation Assay (Promega) may be used. Cell death by apoptosis is confirmed by pre-incubation of the cells with 50 μM of a caspase inhibitor such as zVAD-fmk.
Neutralisation of both Bcl-xL and Mcl-1 anti-apoptotic proteins in normal cells is required before a cell undergoes apoptosis via the downstream Bax/Bak pathway [Chen et al., 2005; Willis et al., 2005]. A compound that only targets Bcl-xL should not affect normal cells, but could kill certain cancer cells if they rely more on Bcl-xL and less on Mcl-1 for survival. To mirror this, compound 1 was tested for its effect on survival of wild type (wt) mouse embryo fibroblasts (MEFs), Bax/Bak double knockout (BB DKO) MEFs, MEFs that expressed Noxa, and MEFs that expressed Bad. Noxa specifically neutralizes Mcl-1.

SCLC cell line NCI-H146 = experiment: CellTitre-Glow luminescent cytotoxicity assay, NCI-H146; format: cell-based; settings: Homo sapiens; NCI-H146 cells, 48 hr incubation
Description: (§1) • 1. SCLC cell lines NCI-H889, NCI-H1963, and NCI-H146 were purchased from American Type Culture Collection. Cells were maintained in RPMI 1640 (Invitrogen Corp., Grand Island, N.Y.) supplemented with 10% fetal bovine serum (FBS, Invitrogen), 1% sodium pyruvate, 25 mM HEPES, 4.5 g/L glucose and 1% penicillin/streptomycin (Sigma) in a humidified chamber at 37° C. containing 5% CO2. • 2. cells were grown as suspension aggregates in a T162 flask with 25 ml medium and kept at concentration of 1 million/mL. Test Compound Stocks: • 1. test compounds were prepared as 10 mM stocks in DMSO and stored at −20° C. Test Compound Serial Dilutions: • 1. prewarmed medium to 37° C. • 2. thawed compounds to room temperature. • 3. determined what will be the highest concentration to be tested. (i.e. 10 μM). • 4. prepared a 2× stock in culture medium of the first dose (i.e. 2×10 μM=20 μM) in an Eppendorf tube (i.e. 4 μl of 5 mM stock into 1000 μl=20 μM). • 5. inverted tube several times to mix. […] Columns 1-10 comprised the serial test compound treatments, column 11 was the untreated control and column 12 was the ‘no cell’ control for determining the background. • 1. in a 96 well plate was added 50 μl medium/well in columns 2 thru 11 and 100 μl was added to column 12. • 2. in column 1 was added 100 μl of 2× compound. • 3. made serial dilutions by transferring 50 μl to column 2, and so on up to column 10. After adding 50 μl to column 10 and mixing, discarded 50 μl. • 4. stored plates at 37° C. until ready to add cells. Cell Preparation • 1. Cell were washed one time in the culture medium and prepared as a suspension. • a. cell were first spun down to remove the medium and then ˜1 ml 0.25% trypsin was added and gently mixed and incubated for no more than three minutes at room temperature. • b. ˜10 ml of the medium was added and the cells were gently pipetted several times. • c. cells were then counted and spun down to the volume necessary for the total cell number needed, then resuspended in the medium to 200 cells/μl concentration (50,000 cells/well). • 2. […]

GST tagged Mcl-1 protein = GST tagged Mcl-1 protein (Homo sapiens, UniProt Q07820); experiment: Alphascreen competition binding assay, GST tagged Mcl-1 vs biotinylated Bak BH3 peptide; settings: competition with Bak BH3 peptide; unit inferred
Source text: (§2) Measurement of competition of compounds of the invention with Bim26-mer for a Bcl-2 homologue binding site.
(§3) Alphascreen (Amplified Luminescent Proximity Homogenous Assay) is a bead based technology which measures the interaction between molecules. The assay consists of two hydrogel coated beads which, when bought into close proximity by a binding interaction, allow the transfer of singlet oxygen from a donor bead to an acceptor bead.
(§4) Upon binding and excitation with laser light at 680 nm, a photosensitizer in the donor bead converts ambient oxygen to a more excited singlet state. This singlet oxygen then diffuses across to react with a chemiluminescer in the acceptor bead. Fluorophores within the same bead are activated resulting in the emission of light at 580-620 nm.
(§5) Screening of the compounds of the invention was performed using the Alphascreen GST (glutathione s-transferase) detection kit system. Test compounds were titrated into the assay which consisted of GST tagged Bclw ΔC29 protein (0.05 nM Final concentration) and Biotinylated Bim BH3-26 peptide, Biotin-[…] (3.0 nM Final concentration). For the GST tagged BCl-xL assay, GST tagged BCl-xL ΔC25 protein (0.6 nM Final concentration) and Biotinylated Bim BH3-26 peptide, Biotin-[…] (5.0 nM final concentration) were used. To this reaction mix anti-GST coated acceptor beads and Streptavidin coated donor beads, both at 15 μg/ml Final concentration, were added and the assay mixture incubated for 4 hours at room temperature before reading. Similarly when the Bcl-2 protein was Mcl-1, GST tagged Mcl-1 protein (0.4 nM Final concentration) and Biotinylated Bak BH3 peptide, Biotin-[…]-OH (4.0 nM Final concentration) were used.
(§6) • 1) prepare a 384 well with 4.75 μL of buffer and 0.25 μL of compounds (20 mM in DMSO) per well. • 2) Mix the binding partners, in one tube add Bcl-w, BCl-xL or Mcl-1 and the acceptor beads, in the second tube add Biotinylated BH3 peptide and the donor beads. • 3) Pre-incubate the two pairs of binding partners for 30 minutes. • 4) Add 1 μL of acceptor beads:Bcl-w, BCl-xL or Mcl-1 protein mix to each well. • 5) Seal the plate and incubate at room temperature for 30 minutes. • 6) Add 10 μL of donor bead:BH3 peptide mix to each well. • 7) Seal the plate, cover with foil and incubate for 4 hours.
(§7) Assay buffer contained 50 mM Hepes pH 7.4, 10 mM DTT, 100 mM NaCl, 0.05% Tween and 0.1 mg/ml casein. Bead dilution buffer contained 50 mM Tris, pH 7.5, 0.01% Tween and 0.1 mg/ml casein. The final DMSO concentration in the assay was 0.5%. Assays were performed in 384 well white Optiplates and analyzed on the PerkinElmer Fusion alpha plate reader (Ex680, Em520-620 nM).
(§8) The GST Alphascreen detection kit and Optiplates were purchased from PerkinElmer.

SCLC cell line NCI-H1963 = experiment: CellTitre-Glow luminescent cytotoxicity assay, NCI-H1963; format: cell-based; settings: Homo sapiens; NCI-H1963 cells, 48 hr incubation
Description: as §1

[2] = target: GST tagged BCl-xL ΔC25 protein (Homo sapiens, UniProt Q07817); experiment: Alphascreen competition binding assay, GST tagged Bcl-xL vs biotinylated Bim BH3-26 peptide; settings: competition with Bim BH3-26 peptide; unit inferred
Source text: as §2, §3, §4, §5, §6, §7, §8

SCLC cell line NCI-H889 = experiment: CellTitre-Glow luminescent cytotoxicity assay, NCI-H889; format: cell-based; settings: Homo sapiens; NCI-H889 cells, 48 hr incubation
Description: as §1

Sequence of GST tagged Mcl-1 protein (Q07820 whole entry): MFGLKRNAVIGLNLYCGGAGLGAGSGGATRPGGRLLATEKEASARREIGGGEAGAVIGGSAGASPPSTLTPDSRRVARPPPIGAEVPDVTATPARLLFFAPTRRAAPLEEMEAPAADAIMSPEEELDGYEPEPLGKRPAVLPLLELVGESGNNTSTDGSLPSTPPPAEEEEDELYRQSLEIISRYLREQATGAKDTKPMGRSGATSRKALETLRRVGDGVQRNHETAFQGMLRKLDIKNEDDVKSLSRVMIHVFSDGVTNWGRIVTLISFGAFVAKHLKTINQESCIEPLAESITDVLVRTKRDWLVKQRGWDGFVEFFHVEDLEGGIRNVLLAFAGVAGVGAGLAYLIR
Sequence of GST tagged BCl-xL ΔC25 protein (Q07817 1-208 limits assumed): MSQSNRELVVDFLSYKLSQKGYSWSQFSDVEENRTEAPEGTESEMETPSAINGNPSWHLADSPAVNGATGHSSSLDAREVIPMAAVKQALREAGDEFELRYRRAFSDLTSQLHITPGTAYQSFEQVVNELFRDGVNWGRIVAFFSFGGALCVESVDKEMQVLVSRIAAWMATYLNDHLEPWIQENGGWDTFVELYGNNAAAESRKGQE

CN(C)CC[C@H](CSc1ccccc1)Nc1ccc(S(=O)(=O)Nc2ncnc3cc(N4CCN(Cc5ccccc5-c5ccc(Cl)cc5)CC4)ccc23)cc1[N+](=O)[O-] [Compound 1, N-{7-[4-(4′-Chloro-biphenyl-2-ylmethyl)-piperazin-1-yl]-quinazolin-4-yl}-4-((R)-3-dimethylamino-1-phenylsulfanylmethyl-propylamino)-3-nitro-benzenesulfonamide]
Selectivity of killing of Noxa-expressing MEFs versus MEFs where both Bcl-xL and Mcl-1 are protective (% viability) [1]: much more sensitive to killing | EC50 (SCLC cell line NCI-H146): 0.61 µM | pIC50 (GST tagged Mcl-1 protein): 5.05 | EC50 (SCLC cell line NCI-H1963): 0.17 µM | pIC50 [2]: 8.15 | EC50 (SCLC cell line NCI-H889): 0.21 µM
